Usually IC50 stands for the concentration that gives 50% inhibition. The term solubility denotes the dissolved amount per volume that the medium holds. In general, EC50 refers to the concentration that produces a half-maximal response. The low end stands for higher potency in that assay, the high end for lower potency in that assay.

≈ marks a conversion by molar mass, not a printed value. Bounds are passed on as bounds.

In data set [1] the target is T1, Nuclear receptor ROR-gamma (Homo sapiens, UniProt P51449).
T1 sequence (P51449 whole entry): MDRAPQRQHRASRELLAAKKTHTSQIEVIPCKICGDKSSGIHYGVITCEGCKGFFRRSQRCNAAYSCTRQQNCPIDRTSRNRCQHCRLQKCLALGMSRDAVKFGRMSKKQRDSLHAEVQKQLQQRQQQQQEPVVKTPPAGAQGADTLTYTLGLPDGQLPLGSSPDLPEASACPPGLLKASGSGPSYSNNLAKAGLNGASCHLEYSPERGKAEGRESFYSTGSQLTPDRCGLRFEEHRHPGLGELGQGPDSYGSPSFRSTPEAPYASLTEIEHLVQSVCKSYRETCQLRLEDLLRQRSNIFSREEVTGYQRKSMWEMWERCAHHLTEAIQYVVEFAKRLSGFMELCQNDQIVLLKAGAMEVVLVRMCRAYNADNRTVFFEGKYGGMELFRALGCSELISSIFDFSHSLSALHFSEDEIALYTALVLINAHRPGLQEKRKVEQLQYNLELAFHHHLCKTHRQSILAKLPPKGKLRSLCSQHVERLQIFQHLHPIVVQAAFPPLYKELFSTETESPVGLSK
In words: Inverse agonist activity at recombinant human GST-tagged ROR-gamma receptor ligand binding domain assessed as inhibition of receptor and co-activator TRAP220 interaction by FRET assay.

Data set [2] can be described thus: Aqueous solubility of compound at pH 6.8. The format is physicochemical.
Data set [3] concerns the target Liver X receptor (Homo sapiens) (UniProt Q13133+P55055). In words: Agonist activity at LXR (unknown origin) at 10 uM. The data set is classed as protein assay.
Data set [4] has as its target T2, Bile acid receptor (Homo sapiens) (UniProt Q96RI1).
T2 sequence (whole entry): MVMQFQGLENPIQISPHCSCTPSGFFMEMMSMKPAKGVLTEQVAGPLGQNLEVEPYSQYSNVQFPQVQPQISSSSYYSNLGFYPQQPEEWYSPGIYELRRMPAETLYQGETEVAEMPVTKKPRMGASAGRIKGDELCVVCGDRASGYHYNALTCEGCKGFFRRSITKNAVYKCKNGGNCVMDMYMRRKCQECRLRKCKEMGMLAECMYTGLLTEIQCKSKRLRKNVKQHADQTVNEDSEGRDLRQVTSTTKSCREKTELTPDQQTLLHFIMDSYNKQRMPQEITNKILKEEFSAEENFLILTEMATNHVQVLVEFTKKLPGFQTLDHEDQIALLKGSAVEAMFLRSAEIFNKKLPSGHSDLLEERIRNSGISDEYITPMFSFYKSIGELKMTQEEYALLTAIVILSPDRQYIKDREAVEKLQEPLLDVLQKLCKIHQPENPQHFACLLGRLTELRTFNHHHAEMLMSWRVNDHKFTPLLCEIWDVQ
The experiment in a line: Agonist activity at FXR (unknown origin) at 10 uM.

In data set [5] the target is T3, Nuclear receptor subfamily 1 group I member 2 (Homo sapiens, UniProt O75469).
T3 sequence (O75469 whole entry): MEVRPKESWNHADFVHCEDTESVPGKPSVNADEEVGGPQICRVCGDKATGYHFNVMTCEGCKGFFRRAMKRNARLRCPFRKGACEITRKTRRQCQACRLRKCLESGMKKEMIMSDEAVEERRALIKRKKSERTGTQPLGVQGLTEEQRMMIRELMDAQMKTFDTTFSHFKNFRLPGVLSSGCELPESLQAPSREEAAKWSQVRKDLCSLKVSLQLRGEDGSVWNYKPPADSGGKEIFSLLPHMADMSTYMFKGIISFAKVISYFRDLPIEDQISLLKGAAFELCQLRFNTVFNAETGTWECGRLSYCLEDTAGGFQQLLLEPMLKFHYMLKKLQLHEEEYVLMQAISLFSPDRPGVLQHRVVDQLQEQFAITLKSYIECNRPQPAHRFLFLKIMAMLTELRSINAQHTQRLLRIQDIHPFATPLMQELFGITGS
In words: Agonist activity at PXR (unknown origin) at 10 uM.

Data set [6] deals with T4, Nuclear receptor ROR-beta (Homo sapiens, UniProt Q92753).
T4 sequence (Q92753 whole entry): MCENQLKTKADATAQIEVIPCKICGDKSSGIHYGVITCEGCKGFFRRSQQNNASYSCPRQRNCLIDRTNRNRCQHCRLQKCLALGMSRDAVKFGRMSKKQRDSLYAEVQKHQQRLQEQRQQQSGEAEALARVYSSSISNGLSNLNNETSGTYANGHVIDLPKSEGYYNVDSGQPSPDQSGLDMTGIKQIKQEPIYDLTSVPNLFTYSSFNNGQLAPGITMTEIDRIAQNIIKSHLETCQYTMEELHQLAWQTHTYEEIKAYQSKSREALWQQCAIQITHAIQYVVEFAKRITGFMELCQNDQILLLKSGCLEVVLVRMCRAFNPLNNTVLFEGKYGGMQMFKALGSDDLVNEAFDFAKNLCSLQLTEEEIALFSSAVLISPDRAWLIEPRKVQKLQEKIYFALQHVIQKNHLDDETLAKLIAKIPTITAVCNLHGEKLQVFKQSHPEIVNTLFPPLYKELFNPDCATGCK
The experiment in a line: Inverse agonist activity at human ROR-beta transfected in HEK293T cells by Gal4 luciferase reporter gene assay. The format is cell-based, HEK-293T. In general terms: A reporter such as luciferase makes a cellular process visible.

Data set [7] addresses T5, Nuclear receptor ROR-alpha (Homo sapiens, UniProt P35398).
T5 sequence (P35398 whole entry): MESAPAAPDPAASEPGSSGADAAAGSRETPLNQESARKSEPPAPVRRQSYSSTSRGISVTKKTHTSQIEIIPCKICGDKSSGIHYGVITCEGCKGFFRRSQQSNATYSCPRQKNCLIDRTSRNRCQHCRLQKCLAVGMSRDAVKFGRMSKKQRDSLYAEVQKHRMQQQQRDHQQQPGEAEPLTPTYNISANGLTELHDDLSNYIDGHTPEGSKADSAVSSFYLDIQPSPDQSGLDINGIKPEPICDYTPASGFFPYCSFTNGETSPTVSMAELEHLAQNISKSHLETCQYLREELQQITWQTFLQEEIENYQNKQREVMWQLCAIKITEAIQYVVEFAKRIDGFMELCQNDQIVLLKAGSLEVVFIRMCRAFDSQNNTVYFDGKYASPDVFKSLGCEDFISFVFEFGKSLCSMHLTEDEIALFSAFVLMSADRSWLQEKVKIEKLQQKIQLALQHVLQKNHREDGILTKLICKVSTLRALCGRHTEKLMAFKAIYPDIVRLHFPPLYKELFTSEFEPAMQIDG
In words: Inverse agonist activity at human ROR-alpha transfected in HEK293T cells by Gal4 luciferase reporter gene assay. The data set is classed as cell-based, HEK-293T.

For a further data set, the target named is Cytochrome P450 3A4 (Homo sapiens, UniProt P08684). The experiment in a line: Inhibition of CYP3A4 (unknown origin). The data set is classed as ADME.
Chain of Cytochrome P450 3A4 (P08684 whole entry): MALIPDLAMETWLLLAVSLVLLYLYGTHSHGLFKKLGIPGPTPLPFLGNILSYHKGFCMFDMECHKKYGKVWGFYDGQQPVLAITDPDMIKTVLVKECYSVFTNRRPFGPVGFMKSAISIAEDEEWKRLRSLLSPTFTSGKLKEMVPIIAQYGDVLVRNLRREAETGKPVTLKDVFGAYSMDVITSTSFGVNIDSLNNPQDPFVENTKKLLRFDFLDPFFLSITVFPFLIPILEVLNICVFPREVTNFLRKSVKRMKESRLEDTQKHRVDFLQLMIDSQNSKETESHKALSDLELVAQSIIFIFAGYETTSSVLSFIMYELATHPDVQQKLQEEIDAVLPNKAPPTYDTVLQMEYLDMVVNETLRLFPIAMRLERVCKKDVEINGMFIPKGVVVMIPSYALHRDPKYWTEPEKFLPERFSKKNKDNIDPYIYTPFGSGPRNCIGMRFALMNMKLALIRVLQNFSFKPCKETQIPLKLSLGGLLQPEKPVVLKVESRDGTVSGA
For data set [8], the target named is T3, Nuclear receptor subfamily 1 group I member 2. In words: Agonist activity at PXR (unknown origin).

In the case of `Cn1ccc2c(S(=O)(=O)N(CC(F)(F)F)c3ccc4c(c3)CCCN4C(=O)c3cccs3)cccc21`, in data set [1], the IC50 came out at 56 nM. On the same count and under the same terms, the value for `O=C(c1ccc(F)c(-c2ccc3c(c2)CCCN3C(=O)c2c(F)cccc2Cl)c1)N1CCCC1` was 1900 nM; that for `Cn1ccc2c(S(=O)(=O)N(CC(F)(F)F)c3ccc(-c4cccc(C(N)=O)c4)cc3)cccc21` was 1500 nM. Regarding `O=S(=O)(c1cccc(Cl)c1)N(CC(F)(F)F)c1ccc(C(O)(C(F)(F)F)C(F)(F)F)cc1`, the solubility in [2] (aqueous, read-out: solubility) was under 0.5 µg/mL. Besides, the IC50 in data set [1] was 72 nM. Moreover, the Activity in [3], in data set [4] and in [5] was 100% each time. Regarding `CNC(=O)c1cccc(-c2ccc(N(CC(F)(F)F)S(=O)(=O)c3cccc4c3ccn4C)cc2)c1`, in [1], the half-inhibitory concentration (IC50) was 3200 nM.

Regarding `Cc1cc(O)ccc1-c1ccc(N(CC(F)(F)F)S(=O)(=O)c2cccc3c2ccn3C)cc1`, the concentration for half-maximal inhibition (IC50) in data set [1] was 210 nM. The same measure, in the same setting: the value for `Cc1cc(CO)ccc1-c1ccc(N(CC(F)(F)F)S(=O)(=O)c2cccc(Cl)c2)cc1` was 6500 nM.

Regarding `CNS(=O)(=O)c1cccc(-c2ccc3c(c2)CCCN3C(=O)c2c(F)cccc2Cl)c1`, in data set [1], the IC50 was determined as 6400 nM. On the same count and under the same terms, the value for `CNC(=O)c1ccc(F)c(-c2ccc(N(CC(F)(F)F)S(=O)(=O)c3cccc4c3ccn4C)cc2)c1` was 4700 nM. `Cc1cc(CO)ccc1-c1ccc(N(CC(F)(F)F)S(=O)(=O)c2cccc3c2ccn3C)cc1`: the half-maximal inhibitory concentration (IC50) in [1] worked out at 630 nM. The same measure, in the same setting: the value for `Cc1cc2nccn2cc1-c1ccc(N(CC(F)(F)F)S(=O)(=O)c2cccc3c2ccn3C)cc1` was 2800 nM; that for `O=C(c1cc(F)cc(-c2ccc3c(c2)CCCN3C(=O)c2c(F)cccc2Cl)c1)N1CCOCC1` was 8100 nM. On the same count and under the same terms, the value for `NC(=O)c1ccccc1-c1ccc2c(c1)CCCN2C(=O)c1c(F)cccc1Cl` was over 10000 nM; that for `Cc1cc2nccn2cc1-c1ccc(N(CC(F)(F)F)S(=O)(=O)c2cccc(Cl)c2)cc1` was 520 nM. Turning to `NC(=O)c1ccc(Cl)c(-c2ccc3c(c2)CCCN3C(=O)c2c(F)cccc2Cl)c1`, the solubility in [2] (aqueous, read-out: solubility) came to 0.04 µg/mL (≈ 0.0902 µM). Besides, the 50% effective concentration (EC50) in data set [6] was 1100 nM; in data set [7] it was 390 nM. As to `Cc1cc(C2(C(=O)O)CC2)ccc1-c1ccc(N(CC(F)(F)F)S(=O)(=O)c2cccc(Cl)c2)cc1`, the half-inhibitory concentration (IC50) in data set [1] is over 10000 nM.

As to `Cc1ccc(S(=O)(=O)N(CC(F)(F)F)c2ccc3c(c2)CCCN3C(=O)c2cccs2)cc1C`, in [1], the IC50 amounted to 200 nM. Still for that read-out and setting: the value for `Cc1ccc(S(=O)(=O)Nc2ccc3c(c2)CCCN3C(=O)c2cccs2)cc1C` was 1470 nM; that for `Cc1cc(C2(C(=O)O)CC2)ccc1-c1ccc(N(CC(F)(F)F)S(=O)(=O)c2cccc3c2ccn3C)cc1` was 910 nM. For `Cn1ccc2c(S(=O)(=O)N(CC(F)(F)F)c3ccc(C(O)(C(F)(F)F)C(F)(F)F)cc3)cccc21`, the solubility in data set [2] (aqueous, read-out: solubility) was under 0.5 µg/mL. Besides, in [1], the 50% inhibitory concentration (IC50) was 72 nM. Besides, the Activity in data set [3], in data set [4] and in data set [5] was 100% in each case.

For `Cc1cc(O)ccc1-c1ccc(N(CC(F)(F)F)S(=O)(=O)c2cccc(Cl)c2)cc1`, the IC50 in data set [1] came to 520 nM. Same read-out and setting: under `CNC(=O)c1cccc(-c2ccc(N(CC(F)(F)F)S(=O)(=O)c3cccc(Cl)c3)cc2)c1` stands over 10000 nM. Regarding `Cc1ccc(S(=O)(=O)N(CC(F)(F)F)c2ccc3c(c2)CCCN3C(=O)c2c(F)cccc2Cl)cc1C`, the solubility entry in data set [2] (buffer) was “Insoluble”. In addition, the IC50 in data set [1] was determined as 10 nM. Also, at Cytochrome P450 3A4, the “inhibition (INH)” value was “Active”. Moreover, the result in [8] was Active. For the compound `NC(=O)c1cccc(-c2ccc(N(CC(F)(F)F)S(=O)(=O)c3cccc(Cl)c3)cc2)c1`, the IC50 in [1] worked out at 3800 nM.

Turning to `NC(=O)c1ccc(Cl)c(-c2ccc(N(CC(F)(F)F)S(=O)(=O)c3cccc(Cl)c3)cc2)c1`, the IC50 in [1] was 4200 nM. Still for that read-out and setting: the value for `NS(=O)(=O)c1cccc(-c2ccc3c(c2)CCCN3C(=O)c2c(F)cccc2Cl)c1` was 10000 nM; that for `CNC(=O)c1ccc(F)c(-c2ccc(N(CC(F)(F)F)S(=O)(=O)c3cccc(Cl)c3)cc2)c1` was 7800 nM.

The values are drawn from ChEMBL document CHEMBL3792338, “Discovery of biaryls as RORγ inverse agonists by using structure-based design” (Bioorg Med Chem Lett, 2016).
